From patent US6369103B1, “Method for preventing or reducing risk of onset of cardiovascular events employing an HMG CoA reductase inhibitor” (Bristol-Myers Squibb Company, priority 1994, dated 2002)
Read-outs that look alike come from different tables or passages of the source.

Key:
[1] = system: patients with primary hypercholesterolemia and ≧2 additional risk factors for coronary artery disease; details: for Sudden cardiac death, number / Myocardial infarction (fatal and nonfatal), number: n = 530; for Myocardial infarction (fatal and nonfatal), number: p = 0.031 vs placebo
Experimental: This example describes a large multinational study, “Effects of Pravastatin in Patients with Serum Total Cholesterol Levels from 5.2 to 7.8 mmol/liter (200 to 300 mg/dl) Plus Two Additional Atherosclerotic Risk Factors,” The Pravastatin Multinational Study Group for Cardiac Risk Patients, reported in Am. J. Cardiology Vol. 72, Nov. 1, 1993, 1031-1036. The study was designed to examine the efficacy and safety of pravastatin, together with diet modification and advice on smoking, in patients with primary hypercholesterolemia and ≧2 additional risk factors for coronary artery disease (CAD).
(§1) The efficacy and long-term safety of pravastatin in hypercholesterolemic patients were investigated in this multicenter, randomized, double-blind placebo-controlled trial. After dietary stabilization and recommendations for lifestyle modification during a 6-week placebo lead-in period, patients were randomized to receive pravastatin 20 mg or placebo at bedtime. After 13 weeks, patients who responded (defined as a decrease in total cholesterol level by >15% from baseline or to <5.2 mmol/liter [200 mg/dl]) to treatment continued on the same study medication for 13 additional weeks. […] Compliance with dietary instructions and other lifestyle counseling were periodically assessed. After completing the initial 26-week period, patients were given the option to continue in an additional 26-week double-blind phase and, following the first 52 weeks, a final 26-week period that was open-label for pravastatin in patients originally assigned to that treatment group. Additional lipid-lowering medications, except other 3-hydroxy-3-methylglutaryl coenzyme A reductase inhibitors and fibrates, could be added to patients not meeting treatment goals at the end of the first 26 weeks. Fibrates could be added in the open-label period of the study in patients originally assigned placebo.
The protocol was approved by each local ethics committee, and patients gave informed consent before randomization. The study population was to be limited to men and postmenopausal or surgically sterile women 20 to 69 years old. At entry, patients were to have a serum total cholesterol concentration between 5.2 and 7.8 mmol/liter (200 and 300 mg/dl) despite dietary intervention as well as ≧2 additional risk factors for CAD as defined in the protocol (male gender, systemic hypertension, cigarette smoking, family history of CAD, prior myocardial infarction, or history of angina pectoris). Exclusion criteria included (1) a history of homozygous familial hypercholesterolemia; (2) types I, III, IV or V hyperlipoproteinemia; (3) significant metabolic, renal, hepatic or endocrine disease; (4) history of drug abuse; or (5) obesity (>40% above ideal body weight). Patients were also excluded if, within 8 weeks of randomization, they were taking cortico-steroids immunosuppressive drugs, investigational drugs, androgens, or estrogens and progestins for indications other than replacement therapy.
(§2) After ≧4 weeks of dietary stabilization, 2 qualifying blood samples for the lipid profile were drawn approximately 1 week apart after an overnight fast of ≧10 hours. Seated systolic and diastolic blood pressures were recorded at 2 weeks and 1 week before randomization; other risk factors were assessed 1 week before randomization. Baseline lipid and laboratory safety tests, blood pressure and body weight measurements, and an ophthalmologic evaluation (including visual acuity and determination of lenticular opacities) were performed at randomizations. The presence of concurrent disease and the use of concomitant medications were also recorded. When patients returned for clinic visits at weeks 6, 13 and 26, body weight and blood pressure were measured, morning samples for lipid profiles and laboratory safety tests were drawn, and clinical adverse events and concomitant medications were recorded. Drug compliance (by tablet count) was assessed and the ophthalmologic evaluation was repeated at weeks 13 and 26.

[2] = system: patients with primary hypercholesterolemia and ≧2 additional risk factors for coronary artery disease; details: Pearson et al. commentary, cited from earlier work
[3] = system: patients with primary hypercholesterolemia and ≧2 additional risk factors for coronary artery disease; assay: Multinational randomized double-blind placebo-controlled trial: effects on plasma lipids; assay type: in vivo, human; details: for LDL cholesterol, Mean ± SEM: calculated (Friedewald)
Experimental: J. Cardiology Vol. 72, Nov. 1, 1993, 1031-1036. […] Lipid analyses were performed at local laboratories and a central laboratory. […] The LDL cholesterol concentration was calculated using the Friedewald equation converted to mmol/liter: […] To assess the comparability of treatment groups, baseline values and demographic characteristics for all randomized patients were summarized for each treatment group by descriptive statistics. The primary efficacy variables were the serum lipids analyzed at local laboratories at weeks 0, 6, 13 and 26. All values were transformed to natural logarithms for the analysis. Geometric means were used to summarize lipid values by treatment group at each visit. Treatment groups were compared by analysis of covariance of change from baseline in transformed values with baseline as a covariate.

[4] = system: patients with primary hypercholesterolemia and ≧2 additional risk factors for coronary artery disease; details: in vivo
Experimental: as §1, §2
Laboratory safety tests were performed by local laboratories and consisted of hematology (hemoglobin, red blood cell count, hematocrit, platelet count, and white blood cell count and differential) and blood chemistries (urea, creatinine, uric acid, calcium, total bilirubin, alkaline phosphatase, aspartate aminotransferase, alanine aminotransferase, γ-glutamyl aminotransferase, total protein, albumin and creatine kinase).
The incidence of adverse events in each treatment group was summarized by body system and individual events. In addition, events predefined by the protocol to be serious, e.g., fatal events or events leading to or prolonging hospitalization, were tabulated. Hematology and biochemistry variables were summarized and analyzed by geometric means and analysis of covariance of change from baseline. Ophthalmologic results were summarized in terms of the number of lenticular opacities present at baseline and at weeks 13 and 26. […] Differences in the incidence of adverse events were typically analyzed by the chi-square test with the Fisher's exact test used for rare events. Results were reported as statistically significant if a 2-sided p value ≦0.05 was attained.

[5] = first 26 weeks, listed as Pravastatin
[6] = baseline to Week 26, p<0.001 vs placebo
[7] = end of initial 26 weeks, 20 to 40 mg once daily (average dose 26.5 mg)
[8] = week 13, 20 mg at bedtime, p<0.001 compared with placebo

With CC[C@H](C)C(=O)O[C@H]1C[C@H](O)C=C2C=C[C@H](C)[C@H](CC[C@@H](O)C[C@@H](O)CC(=O)O)[C@H]21 [pravastatin] the “changes in visual acuity (without correction) and incidence of new ocular opacities” value ([1]; both, human, in vivo) was “limited and similar in the 2 treatment groups”, the “Acute congestive heart failure, number” value ([1]; both, human, in vivo, 26 weeks) was 1 and the “Central nervous system serious adverse events, Subtotal” value ([1]; both, human, in vivo, 26 weeks) was 0. The “Cerebral infarction, number” value ([1]; both, human, in vivo, 26 weeks) was 0, the “Other serious adverse events, Subtotal” value ([1]; both, human, in vivo, 26 weeks) was 4 and the “Other serious adverse events: Diabetes, number” value ([1]; both, human, in vivo, 26 weeks) was 1. For the same compound, the “Other serious adverse events: Gastrointestinal, number” value ([1]; both, human, in vivo, 26 weeks) was 2, the “Other serious adverse events: Peripheral arterial disease, number” value ([1]; both, human, in vivo, 26 weeks) was 1 and the “Other serious adverse events: Pulmonary, number” value ([1]; both, human, in vivo, 26 weeks) was 0. The “Serious cardiovascular adverse events” value ([1]; both, human, in vivo, 26 weeks) was 0.2%, the “Serious cardiovascular adverse events (Subtotal), number” value ([1]; both, human, in vivo, 26 weeks) was 1 and the “Surgery serious adverse events, Subtotal” value ([1]; both, human, in vivo, 26 weeks) was 1. For the same compound, the “Surgery: Abdominal (hernia), number” value ([1]; both, human, in vivo, 26 weeks) was 0, the “Surgery: Breast, number” value ([1]; both, human, in vivo, 26 weeks) was 0 and the “Surgery: Coronary artery bypass graft, number” value ([1]; both, human, in vivo, 26 weeks) was 0. For the same compound, the “Surgery: Joint (knee), number” value ([1]; both, human, in vivo, 26 weeks) was 1, the “Syncope, number” value ([1]; both, human, in vivo, 26 weeks) was 0 and the “Total of all serious adverse events, number of events” value ([1]; both, human, in vivo, 26 weeks) was 6. The “Transient ischemic attack, number” value ([1]; both, human, in vivo, 26 weeks) was 0, the “Unstable angina leading to hospitalization, number” value ([1]; both, human, in vivo, 26 weeks) was 0 and the “cardiovascular clinical adverse events” value ([1]; both, human, in vivo, 26 weeks) was 2.8%. The “cardiovascular clinical adverse events, number” value ([1]; both, human, in vivo, 26 weeks) was 15, the “patients reporting adverse events” value ([1]; both, human, in vivo, 26 weeks) was 22.6% and the “patients reporting adverse events, number” value ([1]; both, human, in vivo, 26 weeks) was 120. For the same compound, the “patients with serious adverse events” value ([1]; both, human, in vivo, 26 weeks) was 0.9%, the “patients with serious adverse events, number” value ([1]; both, human, in vivo, 26 weeks) was 5 and the “patients withdrawn from the study because of an adverse event” value ([1]; both, human, in vivo, 26 weeks) was 4.7%. The “adverse events thought to be related to pravastatin administration, number” value ([1]; both, human, in vivo, 52 weeks) was 1, the “cases of unstable angina, number” value ([1]; both, human, in vivo, 52 weeks) was 1 and the “patients reporting clinical adverse events” value ([1]; both, human, in vivo, 52 weeks) was 18.5%. The “patients reporting clinical adverse events, number” value ([1]; both, human, in vivo, 52 weeks) was 55, the “patients who withdrew because of adverse events” value ([1]; both, human, in vivo, 52 weeks) was 1.7% and the “episodes of unstable angina, number” value ([1]; both, human, in vivo, 78 weeks) was 1. For the same compound, the “myocardial infarctions, number” value ([1]; both, human, in vivo, 78 weeks) was 1, the “Sudden cardiac death, number” value ([1]; first 26 weeks) was “none” and the “Sudden cardiac death, number” value [1, 5] was 0. The “Myocardial infarction (fatal and nonfatal), number” value ([1]; first 26 weeks) was “no patient and none”, the “Myocardial infarction (fatal and nonfatal), number” value [1, 5] was 0 and the deaths ([1]; first 26 weeks, three placebo-treated patients died) was “no pravastatin-treated patient died”. For the same compound, the “Total of all serious adverse events, number of events” value ([1]; human, in vivo) was “Six”, the “patients who sustained myocardial infarctions, number” value ([1]; human, in vivo) was “One” and the “patients who withdrew because of adverse events, number” value ([1]; human, in vivo) was “Five”. For the same compound, the “patients withdrawn because of angioedema thought to be possibly related to drug therapy, number” value ([1]; human, in vivo) was “One”, the “patients withdrawn because of creatine kinase elevation or musculoskeletal events, number” value ([1]; human, in vivo) was “Three” and the “patients withdrawn from the study because of an adverse event, number” value ([1]; human, in vivo) was “Twenty-five”. The serious cerebrovascular events ([1]; human, in vivo) was “none”, the “total incidence of clinical adverse events, pravastatin vs placebo” value ([1]; human, in vivo) was “no differences” and the deaths ([1]; long-term portion of the trial) was “no deaths”. The “medical and surgical events in the coronary and cerebrovascular beds, number” value ([2]; first 26 weeks, 21 in the placebo group) was 1, the “cases of myocardial infarction or unstable angina, number” value ([2]; over the 78 weeks of the study, 16 in the placebo group) was 2 and the “LDL cholesterol, Mean ± SEM” value ([3]; Baseline, n=499) was 4.69 ± 1.05 mmol/L. The “HDL cholesterol, Mean ± SEM” value ([3]; Baseline, n=500) was 1.14 ± 0.35 mmol/L, the “Triglycerides, Mean ± SEM” value ([3]; Baseline, n=520) was 1.77 ± 0.82 mmol/L and the “Total cholesterol, Mean ± SEM” value ([3]; Baseline, n=521) was 6.81 ± 0.78 mmol/L. For the same compound, the “HDL cholesterol, Mean ± SEM” value ([3]; Week 26, n=459) was 1.23 ± 0.37 mmol/L, the “LDL cholesterol, Mean ± SEM” value ([3]; Week 26, n=459) was 3.47 ± 0.74 mmol/L and the “Total cholesterol, Mean ± SEM” value ([3]; Week 26, n=483) was 5.55 ± 0.82 mmol/L. For the same compound, the “Triglycerides, Mean ± SEM” value ([3]; Week 26, n=483) was 1.56 ± 0.74 mmol/L, the “LDL cholesterol, % Change” value [3, 6] was −26.01% and the “Total cholesterol, % Change” value [3, 6] was −18.50%. The “Triglycerides, % Change” value [3, 6] was −11.86%, the “HDL cholesterol, % Change” value ([3]; baseline to Week 26, p<0.005 vs placebo) was 7.90% and the “increase in HDL cholesterol concentrations” value [3, 7] was 8%. For the same compound, the “reduction in LDL cholesterol” value [3, 7] was 26%, the “reduction in total cholesterol” value [3, 7] was 19% and the reduction in triglycerides [3, 7] was 12%. For the same compound, the “elevation in HDL cholesterol” value [3, 8] was 7%, the “reduction in LDL cholesterol” value [3, 8] was 26% and the “reduction in total cholesterol” value [3, 8] was 19%. The reduction in triglycerides [3, 8] was 12%, the “patients who achieved the target cholesterol goal” value ([3]; week 13, goal: total cholesterol decrease >15% from baseline or to <5.2 mmol/liter) was 66% and the “number of patients who achieved the target cholesterol goal” value ([3]; week 13, of 491 patients) was 326. The “patients who attained an LDL cholesterol concentration of ≦3.4 mmol/liter (130 mg/dl)” value ([3]; week 26) was 47%, the “patients with elevations of creatine kinase values to >4 times pretreatment values” ([4]; both, human) was 2.6% and the “patients with elevations of creatine kinase values to >4 times pretreatment values, number” value ([4]; both, human) was 14. For the same compound, the “patients with transient, asymptomatic elevations of hepatic transaminases to >3 times the upper limit of normal” value ([4]; both, human) was 1.1%, the “patients with transient, asymptomatic elevations of hepatic transaminases to >3 times the upper limit of normal, number” value ([4]; both, human) was 6 and the “magnitude of the increases in alanine aminotransferase, aspartate aminotransferase and creatine kinase” value [4] was 3-12%. The “mean level of alanine aminotransferase” value [4] was 16.02 U/liter, the “mean level of aspartate aminotransferase” value [4] was 17.24 U/liter and the “mean level of creatine kinase” value [4] was 70.62 U/liter. The “syndrome of drug-induced myopathy (myalgia with creatine kinase >10 times upper limits of normal)” value [4] was “not observed in any patient”.
